Laboratory results taken from patent US20150025012A1, “METHODS AND COMPOSITIONS FOR IDENTIFICATION, ASSESSMENT AND TREATMENT OF CANCERS ASSOCIATED WITH HEDGEHOG SIGNALING” (Infinity Pharmaceuticals, Inc., priority 2010, published 2015).
Counter-ions that a name gives are not always drawn.

What was measured:
human SHh expression = test: Hedgehog ligand expression in bladder cancer cells after chemotherapy; format: cell-based; settings: 24, 48, 72 hours, highest after 144 hours
Bx-PC3 tumors = test: Growth of Bx-PC3 tumors in mice; format: in vivo; settings: single agents and combination
Excerpt: Bevacizumab, a monoclonal antibody, exerts its activity by neutralizing VEGF, a factor important of the proliferation and survival of endothelial cells. […] In the same study, the relative effect of these agents was explored by measuring the mRNA expression of PECAM-1, a marker of endothelial cells and RGS5, a marker of pericytes. […] The role of the vasculature and its supporting pericyte population in the mechanism of action of IPI-926 continues to be explored.
For in vivo studies, tumors were grown in male NCR-nu/nu mice by subcutaneous injection of 5×10^6 cells. Tumor growth was monitored using calipers. When tumors reached an approximate size of 200 mm^3, tumor bearing animals were randomized into treatment arms and administered agents or vehicles as described.

hedgehog pathway = test: C3H10T1/2 alkaline phosphatase assay (Shh-dependent osteoblast differentiation); format: cell-based; settings: Mus musculus, C3H 10T1/2; HCl salt; sonic hedgehog 250 ng/ml; AP activity normalized against total protein; read-out: IC50 (antagonist of the hedgehog pathway)
Excerpt: An exemplary assay to evaluate the activity of a hedgehog inhibitor is as follows. C3H10T1/2 cells differentiate into osteoblasts when contacted with the sonic hedgehog peptide (Shh-N). Upon differentiation, these osteoblasts produce high levels of alkaline phosphatase (AP) which can be measured in an enzymatic assay (Nakamura et al., 1997 BBRC 237: 465). Compounds that block the differentiation of C3H10T1/2 into osteoblasts (a Shh dependent event) can therefore be identified by a reduction in AP production (van der Horst et al., 2003 Bone 33: 899). The assay details are described below. Additional assays to ascertained the activity of hedgehog inhibitors, including IPI-926, are described in US 2009/0181997 by Grayzel et al., U.S. Ser. No. 61/327,373 and 61/331,365, filed on Apr. 23, 2010 and May 4, 2010, respectively; the entire contents of the aforesaid applications are incorporated herein by reference. […]
C3H10T1/2 cells were plated in 96 wells with a density of 8×10^3 cells/well. […] After incubating for 30 min at 37° C., the plates were read on an Envision plate reader at 405 nm. Total protein was quantified with a BCA protein assay kit from Pierce according to manufacturer's instructions. […]

Molecule | human SHh expression (human SHh expression) | also measured
Nc1ccn([C@@H]2O[C@H](CO)[C@@H](O)C2(F)F)c(=O)n1 [gemcitabine] | increase | –
Bevacizumab: a monoclonal antibody, exerts its activity by neutralizing VEGF | – | activity on the growth of Bx-PC3 tumors (Bx-PC3 tumors): approximately the same single agent activity
COc1cccc2c1C(=O)c1c(O)c3c(c(O)c1C2=O)C[C@@](O)(C(=O)CO)C[C@@H]3O[C@H]1C[C@H](N)[C@H](O)[C@H](C)O1 [doxorubicin] | increase | –
CC1=C2C[C@H]3[C@@H](CC[C@@H]4C[C@H](NS(C)(=O)=O)CC[C@@]43C)[C@@H]2CC[C@@]2(C1)O[C@@H]1C[C@H](C)CN[C@H]1[C@H]2C [IPI-926 (HCl salt)] | – | IC50 (hedgehog pathway): < 20 nM
